Measurements published in patent publication US4522815A, “Anthracycline glycosides” (priority 1982, dated 1985).
≈ marks a conversion by molar mass, not a printed value. Like-named read-outs stand apart in the source and are kept apart here.

Legend:
Gross leukemia [1] = assay: Antitumor activity against i.v. transplanted Gross leukemia in C3H/Me mice, treatment i.v. on day 1; type: in vivo; details: for T/C, median survival time; % over untreated controls / Toxic deaths: Table 6
Text: (§1) Results of studies performed in C3H/Me mice carrying i.v. transplanted Gross leukemia and treated i.v. the day after tumor transplantation, are reported in Table 6. […] The compounds Ib and Id were further investigated for oral activity on Gross leukemic transplanted i.v., in comparison with DNR, DX given i.v. and 4-dm DNR given oral route.
Antitumor activity against i.v. Gross leukemia.
Treatment i.v. on day 1.

HeLa cells = assay: Colony inhibition test against HeLa cells in vitro (cloning efficiency), treatment for 24 hrs; type: cell-based; details: for activity at 0.0062 µg/mL: 6.2 ng/ml; for activity at 0.025 µg/mL: 25 ng/ml; for IC50: HeLa colony inhibition; for activity at 0.0125 µg/mL: 12.5 ng/ml
[2] = tested on: P388 leukemia cells sensitive to DX; assay: Cytotoxicity on doxorubicin-sensitive P388 leukemia cells in vitro, 48 hrs exposure; type: cell-based, mice; details: for IC50: Mus musculus, P388, dose giving 50% reduction of cell number vs untreated controls, 48 hrs, read-out: ID50 P388
Text: P388 and P388/DX leukemia cells were harvested from mice ascitic fluid and adapted to grow in suspension "in vitro".

[3] = tested on: P388 leukemia cells resistant to DX (P388/DX); assay: Cytotoxicity on doxorubicin-resistant P388/DX leukemia cells in vitro, 48 hrs exposure; type: cell-based, mice; details: for IC50: Mus musculus, P388/DX, dose giving 50% reduction of cell number vs untreated controls, read-out: ID50 P388/DX; for R: Ratio between ID50 on P388/DX and ID50 on P388: Table 4
Procedure: Compounds Ib and Id were studied "in vitro" on HeLa and P388 leukemia cells sensitive (P388) and resistant (P388/DX) to DX and […].
Compound Ib was studied on P388/DX "in vitro".
P388 and P388/DX leukemia cells were harvested from mice ascitic fluid and adapted to grow in suspension "in vitro". Cytotoxicity tests were carried out exposing the cells to various drug concentrations for 48 hrs; at the end of the exposure period, cells were counted with a coulter cell counter, and the ID50 (dose which gives 50% reduction of the cell number in comparison with untreated controls) was calculated.
Effect on sensitive and doxorubicin-resistant P388
^a Dose giving 50% reduction of cell number in comparison with
^c P388 leukemia cells resistant to DX
^d Ratio between ID50 on P388/DX and ID50 on P388

ascitic P388 leukemia = assay: Antitumor activity against ascitic P388 leukemia in CDF-1 mice, treatment i.p. on day 1; type: in vivo
Procedure: The primary screening […] was carried out in CDF-1 mice bearing ascitic P388 leukemia (10^6 cells/mouse). Both IIa and IIc were suspended in 10%. Tween 80 and injected intraperitoneally.
Results of the primary screening "in vivo" carried out in CDF-1 mice bearing P388 ascitic leukemia and treated i.p. the day after tumor transplantation, are reported in Table 5.
Antitumor activity against ascitic P388 leukekemia.
(§2) Treatment i.p. on day 1.
^a median survival time; % over untreated controls
^b long term survivors (≥ 60 days)
^c evaluated on the basis of autoptic findings on dead mice
(§3) ^d data of two experiments (range)
^e date of three experiments (range)
Antitumor activity of Ib and Id against ascitic P388
as §2

Gross leukemia [4] = assay: Oral activity against i.v. transplanted Gross leukemia (i.v. comparators); type: in vivo, C3H/Me mice; details: for T/C %, median survival time / Toxic deaths: Table 7
Text: as §1
Oral activity of Ib and Id against Gross leukemia
^a days after transplantation
as §3

[5] = Homo sapiens, HeLa, Table 3, 24 hrs, read-out: No of colonies, % of untreated controls
[6] = Homo sapiens, HeLa, 24 h, read-out: No of colonies, % of untreated controls, Table 1, 24 hrs
[7] = Homo sapiens, HeLa, 24 h, read-out: No of colonies, % of untreated controls, Table 3, 24 hrs
[8] = Table 2, 4.4 mg/kg i.p. day 1, two experiments
[9] = Table 2, 6.6 mg/kg i.p. day 1, two (DNR) or three (DX) experiments
[10] = Table 5, 2.9 mg/kg i.p. day 1, two experiments
[11] = Table 5, 4.4 mg/kg i.p. day 1, DNR: two experiments

SMILES: CC(=O)[C@]1(O)Cc2c(O)c3c(c(O)c2[C@@H](O[C@H]2C[C@H](O)[C@@H](O)[C@H](C)O2)C1)C(=O)c1ccccc1C3=O [Compound Ib, 4-demethoxy-7-0-(2,6-dideoxy-α-L-arabino-hexopyranosyl)-daunomycinone]
- antitumor activity, comparison of the Mx TD (Gross leukemia [1]; Gross leukemia, i.v. day 1): more active than DNR
- toxicity and potency vs parent compounds (Gross leukemia [1]; Gross leukemia, i.v. day 1): more toxic and more potent than the parent compounds
- T/C, median survival time; % over untreated controls (Gross leukemia [1]; 2.9 mg/kg i.v. day 1): 214%
- Toxic deaths (Gross leukemia [1]; 2.9 mg/kg i.v. day 1): 0/7
- T/C, median survival time; % over untreated controls (Gross leukemia [1]; 4.4 mg/kg i.v. day 1): 100%
- Toxic deaths (Gross leukemia [1]; 4.4 mg/kg i.v. day 1): 7/8
- times less cytotoxic than 4-dm DNR (HeLa cells; HeLa cells cloning efficiency, vs 4-dm DNR): 6 times
- times less cytotoxic than DNR (HeLa cells; HeLa cells cloning efficiency, vs DNR): 3 times
- activity at 0.0015 µg/mL (HeLa cells; Homo sapiens, HeLa, Table 3, 1.5 ng/ml, 24 hrs, read-out: No of colonies, % of untreated controls): 107%
- activity at 0.0062 µg/mL (HeLa cells; [5]): 87%
- activity at 0.025 µg/mL (HeLa cells; [5]): 67%
- activity at 0.1 µg/mL (HeLa cells; Homo sapiens, HeLa, Table 3, 100 ng/ml, 24 hrs, read-out: No of colonies, % of untreated controls): 0%
- IC50 (HeLa cells; Homo sapiens, Table 3, 24 hrs, read-out: ID50 (the source's name)): ~0.035 µg/mL (≈ 0.0702 µM)
- IC50 [2]: 0.0012 µg/mL (≈ 0.00241 µM)
- cytotoxicity on P388 leukemia cells ([2]; vs DNR): about as cytotoxic as DNR
- activity on P388/DX leukemia cells ([3]; 48 hrs): very active
- IC50 ([3]; 48 hrs): 0.03 µg/mL (≈ 0.0602 µM)
- R: Ratio between ID50 on P388/DX and ID50 on P388 ([3]; 2880 min): 25
- LTS, long term survivors (≥ 60 days) (ascitic P388 leukemia; Table 5, 1.25 mg/kg i.p. day 1): 0/8
- T/C, median survival time; % over untreated controls (ascitic P388 leukemia; Table 5, 1.25 mg/kg i.p. day 1): 140%
- Toxic deaths (autoptic findings on dead mice) (ascitic P388 leukemia; Table 5, 1.25 mg/kg i.p. day 1): 0/8
- LTS, long term survivors (≥ 60 days) (ascitic P388 leukemia; Table 5, 2.5 mg/kg i.p. day 1): 0/9
- T/C, median survival time; % over untreated controls (ascitic P388 leukemia; Table 5, 2.5 mg/kg i.p. day 1): 163%
- Toxic deaths (autoptic findings on dead mice) (ascitic P388 leukemia; Table 5, 2.5 mg/kg i.p. day 1): 3/9
- LTS, long term survivors (≥ 60 days) (ascitic P388 leukemia; Table 5, 5 mg/kg i.p. day 1): 0/10
- T/C, median survival time; % over untreated controls (ascitic P388 leukemia; Table 5, 5 mg/kg i.p. day 1): 63%
- Toxic deaths (autoptic findings on dead mice) (ascitic P388 leukemia; Table 5, 5 mg/kg i.p. day 1): 10/10
- times less potent than 4-dm DNR (ascitic P388 leukemia; ascitic P388, i.p. day 1): about 1.5 times
- times more potent than DNR (ascitic P388 leukemia; ascitic P388, i.p. day 1): 2 times
- antileukemia activity, comparison at the Mx TD (ascitic P388 leukemia; vs DNR and 4-dm DNR): less active than DNR and 4-dm DNR
- T/C %, median survival time (Gross leukemia [4]; oral +1, 2.9 mg/kg): 167%
- Toxic deaths (Gross leukemia [4]; oral +1, 2.9 mg/kg): 0/10
- T/C %, median survival time (Gross leukemia [4]; oral +1, 4.4 mg/kg): 208%
- Toxic deaths (Gross leukemia [4]; oral +1, 4.4 mg/kg): 0/10
- T/C %, median survival time (Gross leukemia [4]; oral +1, 6.6 mg/kg): 116%
- Toxic deaths (Gross leukemia [4]; oral +1, 6.6 mg/kg): 4/9
- antitumor activity given orally at day 1 (Gross leukemia [4]; oral day 1, Gross leukemia, Id at the Mx TD vs DX i.v.): good antitumor activity when given orally at day 1, comparable to that of 4-dm DNR

SMILES: COc1cccc2c1C(=O)c1c(O)c3c(c(O)c1C2=O)C[C@@](O)(C(C)=O)C[C@@H]3O[C@H]1C[C@H](N)[C@H](O)[C@H](C)O1 [DNR, daunorubicin, reference compound]
- T/C, median survival time; % over untreated controls (Gross leukemia [1]; 15 mg/kg i.v. day 1): 171%
- Toxic deaths (Gross leukemia [1]; 15 mg/kg i.v. day 1): 0/8
- T/C, median survival time; % over untreated controls (Gross leukemia [1]; 22.5 mg/kg i.v. day 1): 171%
- Toxic deaths (Gross leukemia [1]; 22.5 mg/kg i.v. day 1): 0/8
- IC50 (HeLa cells; Homo sapiens, HeLa, 24 h, read-out: ID50, Table 1, 24 hrs): ~0.016 µg/mL (≈ 0.0303 µM)
- IC50 (HeLa cells; Homo sapiens, HeLa, 24 h, read-out: ID50, Table 3, 24 hrs): ~0.012 µg/mL (≈ 0.0227 µM)
- activity at 0.0062 µg/mL (HeLa cells; [6]): 106%
- activity at 0.0125 µg/mL (HeLa cells; [6]): 74%
- activity at 0.025 µg/mL (HeLa cells; [6]): 12%
- activity at 0.0062 µg/mL (HeLa cells; [7]): 83%
- activity at 0.0125 µg/mL (HeLa cells; [7]): 51%
- activity at 0.025 µg/mL (HeLa cells; [7]): 9%
- IC50 [2]: 0.0017 µg/mL (≈ 0.00322 µM)
- IC50 ([3]; 48 hrs): 0.8 µg/mL (≈ 1.52 µM)
- fold less active on the resistant than on the sensitive line ([3]; P388/DX vs P388, 2880 min): about 500 fold
- R: Ratio between ID50 on P388/DX and ID50 on P388 ([3]; 2880 min): 470
- LTS, long term survivors (≥ 60 days) (ascitic P388 leukemia; Table 2, 2.9 mg/kg i.p. day 1): 0/10
- T/C, median survival time; % over untreated controls (ascitic P388 leukemia; Table 2, 2.9 mg/kg i.p. day 1): 160%
- Toxic deaths (autoptic findings on dead mice) (ascitic P388 leukemia; Table 2, 2.9 mg/kg i.p. day 1): 0/10
- T/C, median survival time; % over untreated controls (ascitic P388 leukemia; Table 2, 4.4 mg/kg i.p. day 1, data of two experiments (range)): 165-170%
- LTS, long term survivors (≥ 60 days) (ascitic P388 leukemia; [8]): 0/10
- Toxic deaths (autoptic findings on dead mice) (ascitic P388 leukemia; [8]): 0/20
- T/C, median survival time; % over untreated controls (ascitic P388 leukemia; Table 2, 6.6 mg/kg i.p. day 1, range of two (DNR) or three (DX) experiments): 150-160%
- LTS, long term survivors (≥ 60 days) (ascitic P388 leukemia; [9]): 0/10
- Toxic deaths (autoptic findings on dead mice) (ascitic P388 leukemia; [9]): 7/20
- LTS, long term survivors (≥ 60 days) (ascitic P388 leukemia; [10]): 0/18
- Toxic deaths (autoptic findings on dead mice) (ascitic P388 leukemia; [10]): 0/8
- T/C, median survival time; % over untreated controls (ascitic P388 leukemia; Table 5, 2.9 mg/kg i.p. day 1, two experiments (range)): 159-194%
- LTS, long term survivors (≥ 60 days) (ascitic P388 leukemia; [11]): 0/18
- Toxic deaths (autoptic findings on dead mice) (ascitic P388 leukemia; [11]): 7/18
- T/C, median survival time; % over untreated controls (ascitic P388 leukemia; Table 5, 4.4 mg/kg i.p. day 1, DNR: two experiments (range)): 140-184%
- T/C %, median survival time (Gross leukemia [4]; i.v. +1, 15 mg/kg): 200%
- Toxic deaths (Gross leukemia [4]; i.v. +1, 15 mg/kg): 0/10
- T/C %, median survival time (Gross leukemia [4]; i.v. +1, 22.5 mg/kg): 125%
- Toxic deaths (Gross leukemia [4]; i.v. +1, 22.5 mg/kg): 6/10
